# Patent US12594271B2, “Combination therapy for cancer” (Health Research, Inc., priority 2019, dated 2026)
# Entries after “also recorded” stand apart in the source; their conditions may differ.
# How the values were obtained:
# MDSCs = test: MDSC suppression assay: inhibition of T cell proliferation by in vitro generated MDSCs; type: cell-based, mouse
# Procedure: FIG. 2. […] (A) MDSCs were produced in vitro from mouse bone marrow cells using GM-CSF and G-CSF±BRQ (1 μM) or ATRA (10 μM) at the start of the 4-day culture. Cells tested for their ability to inhibit T cell proliferation (1:1 ratio), as in FIG. 5. Fresh BM=Uncultured bone marrow cells. (B) Similar to A, except that uridine (200 μM) was added to rescue the effect of BRQ. (C) Expression of IRF8 (upper) or SLFN4 (lower) was analyzed by qRT-PCR in Lin^− BM cells cultured as in A for 2 days. Data normalized to the vehicle.
# In Vitro Development of MDSCs. Unfractionated mouse bone marrow cells were cultured in dishes with recombinant mouse G-CSF and recombinant mouse GM-CSF (40 ng/ml of each cytokine) for 96 hours to produce MDSCs, as described (Marigo et al. Immunity 32:790-802, 2010). After culture, cells were collected and analyzed by flow cytometry for the indicated cell surface markers. Uncultured or fresh bone marrow (BM) cells served as a negative control.
# Cultured Cells Develop Potent Immunosuppressive Capacity. Using the methods described for FIG. 4, experiments were then performed to determine whether the cells generated from this BM culture system functionally behaved as MDSCs, based on their ability to inhibit T cell proliferation in vitro. To that end, fresh BM (i.e., no in vitro culture) or cultured BM cells (i.e., MDSCs at two different MDSC-to-T cell ratios of 1:1 or 1:2) were co-mixed in 96-well plates with CellTrace Violet (CTV)—stained syngeneic naïve splenocytes as a source of T cells and stimulated with or without soluble agonistic anti-CD3 monoclonal antibody (mAb) (1 μg/ml) for 72 hours. After co-culture, CTV dye dilution in the gated CD4^+ or CD8^+ T cell fractions within the splenocyte populations was analyzed by flow cytometry to determine the extent of proliferation based on dye dilution. In FIG. 5, top panels show CTV dye dilution, as determined by flow cytometry and depicted as a histogram; bottom panels indicate the percentage of proliferation, based on quantification of the histogram data. […]
# AT-3 tumor cells = test: AT-3 orthotopic mammary tumor model: tumor growth and splenic flow cytometry; type: in vivo, mice
# Procedure: Treatment of Tumor-Bearing Mice Alters Surface Phenotype of Myeloid Cells. […] Female BALB/c or C57BL/6 mice were orthotopically implanted with 4T1 or AT-3 mammary tumor cells, respectively, and were monitored 3 times weekly for tumor growth. When tumors became measurable (indicated by the arrow), BRQ was administered daily (10 mg/kg intraperitoneally), and at endpoint the BM cells or spleens were collected for flow cytometric analysis for the expression (i.e., percentage or MFI value) of the indicated cell surface markers (FIGS. 13-15). We extended our in vitro studies with BRQ to […] to determine the impact of BRQ on MDSC maturation. To that end, mice bearing orthotopically implanted mammary tumors were treated with or without BRQ in vivo using a similarly previously reported dose, frequency and schedule (Sykes et al. Cell 167:171-186, 2016). The first tumor model chosen was 4T1, which is an aggressive mammary tumor cell line that induces a robust MDSC response largely comprised of PMN-MDSCs.
# Female C57BL/6 mice were orthotopically implanted with AT-3 tumor cells and were monitored 3 times weekly for tumor growth. When tumors became measurable, BRQ was administered daily (10 mg/kg intraperitoneally), and at endpoint the spleens were collected and analyzed by flow cytometry for the indicated cell surface markers. Tumor growth is shown in the upper panel of FIG. 16 while representative flow cytometry data is shown in the lower panel.
compound,measurement,setting,value
"Cc1c(-c2ccc(-c3ccccc3F)cc2)nc2ccc(F)cc2c1C(=O)O [BRQ, 6-Fluoro-2-(2′-fluoro-[1,1′-biphenyl]-4-yl)-3-methylquinoline-4-carboxylic acid]",ability of in vitro generated MDSCs to inhibit CD4+ or CD8+ T cell proliferation,"MDSCs; BRQ 1 μM at start of 4-day culture, MDSC:T cell 1:1",inhibits MDSC-mediated immune suppression in vitro; also recorded: more effective than ATRA in limiting the formation of immune suppressive cells in vitro; also recorded: significantly reduced the ability of these in vitro-generated MDSCs to inhibit T cell proliferation; also recorded: mitigates MDSC suppressive activity; also recorded: significantly less suppressive to CD4^+ or CD8^+ T cell proliferation compared to cultures containing ATRA
same,"ability of in vitro generated MDSCs to inhibit T cell proliferation, uridine rescue",MDSCs; BRQ 1 μM plus extracellular uridine 200 μM,exogenously supplied uridine blocked the effect of BRQ; also recorded: the addition of uridine antagonized the effect of BRQ and restored MDSC suppressive activity
same,Ly6C expression on the granulocytic (PMN-MDSC) subset,"AT-3 tumor cells; AT-3-bearing mice, spleen",significantly increased the expression of Ly6C
same,Ly6C or Ly6G expression on the monocytic subset,"AT-3 tumor cells; AT-3-bearing mice, spleen",no significant changes
same,Ly6G expression on the surface of granulocytes,"AT-3 tumor cells; AT-3-bearing mice, spleen",increased the expression of Ly6G
same,AT-3 tumor growth,"AT-3 tumor cells; C57BL/6 mice, BRQ 10 mg/kg i.p. daily",minimal effects on inhibiting tumor growth
